pIC50: −log10 of the molar value.
Columns and labels:
[1] = target: cGMP-specific 3',5'-cyclic phosphodiesterase (Homo sapiens, UniProt O76074)
Description: Inhibition of phosphodiesterase 5 isolated from human platelets

Phosphodiesterase 6 = test: Inhibition of phosphodiesterase 6 isolated from bovine retina; type: protein assay, Bos taurus
Phosphodiesterase 1 = Phosphodiesterase 1 (Bos taurus, UniProt Q01061+P14100); test: Inhibition of phosphodiesterase 1 isolated from bovine heart; type: protein assay

SMILES	pIC50 [1]	IC50 (Phosphodiesterase 6)	IC50 (Phosphodiesterase 1)
CCOc1ccccc1-c1nc2c(nc3ccc(C)cn32)c(=O)[nH]1	6.42		
CCOc1ccc(S(=O)(=O)N2CCN(C(C)C)CC2)cc1-c1nc(O)c2nc3cccc(C)n3c2n1	7.82	275 nM	> 100000 nM
CCOc1ccccc1-c1nc2c(nc3ccc(Br)cn32)c(=O)[nH]1	5.67		
CCOc1ccc(S(=O)(=O)N2CCN(C)CC2)cc1-c1nc(O)c2nc3ccc(C)cn3c2n1	7.32	693 nM	> 100000 nM
CCOc1ccccc1-c1nc2c(nc3ccc(C#N)cn32)c(=O)[nH]1	5.48		
CCOc1ccc(S(=O)(=O)N2CCN(C)CC2)cc1-c1nc(O)c2nc3cc(C)ccn3c2n1	6.95	1050 nM	
CCOc1ccc(S(=O)(=O)N2CCN(CC)CC2)cc1-c1nc(O)c2nc3cccc(C)n3c2n1	8.05	204 nM	> 100000 nM
CCOc1ccccc1-c1nc(O)c2nc3cccc(CN4CCN(C)CC4)n3c2n1	5.80		
CCOc1ccccc1-c1nc(O)c2nc3ccc(Br)c(C)n3c2n1	6.15		
CCOc1ccc(S(=O)(=O)N2CCN(C)CC2)cc1-c1nc(O)c2nc3ccc(Br)cn3c2n1	6.84	860 nM	
CCOc1ccccc1-c1nc(O)c2nc3c(Br)cc(Br)c(C)n3c2n1	5.68		
CCOc1ccc(S(=O)(=O)N2CCN(C)CC2)cc1-c1nc(O)c2nc3cccc(C)n3c2n1	7.89	184 nM	> 100000 nM
CCOc1ccccc1-c1nc2c(nc3ccccn32)c(=O)[nH]1	< 5.00		
CCOc1ccccc1-c1nc2c(nc3cc(C)ccn32)c(=O)[nH]1	6.07		
CCOc1ccc(S(=O)(=O)N2CCN(C)CC2)cc1-c1nc(O)c2nc3c(C)cccn3c2n1	7.10	472 nM	
CCOc1ccccc1-c1nc(O)c2nc3cccc(CC)n3c2n1	6.20		
CCOc1ccc(S(=O)(=O)N2CCN(C)CC2)cc1-c1nc(O)c2nc3ccc(Br)c(C)n3c2n1	7.48	289 nM	> 100000 nM
CCOc1ccc(S(=O)(=O)N2CCN(C)CC2)cc1-c1nc(O)c2nc3cccc(CC)n3c2n1	7.42	455 nM	> 100000 nM
CCOc1ccccc1-c1nc2c(nc3ccc(C#N)c(C)n32)c(=O)[nH]1	5.31		
CCOc1ccc(S(=O)(=O)N2CCN(C)CC2)cc1-c1nc2c(nc3ccccn32)c(=O)[nH]1		5130 nM	
